Read-outs that look alike come from different tables or passages of the source.
Columns and labels:
MC3-R [1] = target: T1, MC3-R (Homo sapiens, UniProt P41968); assay: Competitive inhibition binding assay, 125I-NDP-α-MSH, MC3-R; parameters: expressed in transfected cells; conditions: 1 μM compound; inhibition of 125I-NDP-α-MSH binding; mean of triplicates; results less than 0% reported as 0%
Procedure, shortened: (§1)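 Membranes from hMC3-R, hMC4-R or hMC5-R cells, or B-16 mouse melanoma cells (MC1-R), were incubated 90 min at room temperature with 0.4 nM 125I-NDP-α-MSH in HEPES pH 7.2 with Mg2+/Ca2+/K+, and test compound generally at 1 μM. Filter-bound radioactivity was gamma counted. Specific binding was defined with 1 μM α-MSH; triplicate means.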

[2] = target: T2, MC1-R (B-16 mouse melanoma cells) (Mus musculus, UniProt Q01727); assay: Competitive inhibition binding assay, 125I-NDP-α-MSH, MC1-R; conditions: 1 μM compound; inhibition of 125I-NDP-α-MSH binding; mean of triplicates; results less than 0% reported as 0%
T2 construct: B-16 mouse melanoma cells (containing MC1-R); endogenous in cells; host or cells: B-16 mouse melanoma cells
T2 sequence (Q01727 whole entry): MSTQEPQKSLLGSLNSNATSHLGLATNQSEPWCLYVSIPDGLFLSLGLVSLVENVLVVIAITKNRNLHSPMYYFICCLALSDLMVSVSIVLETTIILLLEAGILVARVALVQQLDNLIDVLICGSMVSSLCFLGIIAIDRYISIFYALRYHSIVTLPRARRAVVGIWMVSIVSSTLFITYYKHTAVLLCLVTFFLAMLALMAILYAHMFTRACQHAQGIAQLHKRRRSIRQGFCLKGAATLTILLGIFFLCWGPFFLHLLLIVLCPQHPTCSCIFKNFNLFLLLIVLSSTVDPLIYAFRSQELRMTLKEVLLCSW
Procedure, shortened: as §1

[3] = target: T2, MC1-R (B-16 mouse melanoma cells); assay: cAMP assay for agonist/antagonist status, MC1-R; format: cell-based
Description: (§2) The Ki (nM) of certain peptidomimetics were determined, as was the agonist/antagonist status with respect to MC4-R, Functional evaluation of compounds at melanocortin receptors was performed by measuring the accumulation of intracellular cAMP in HEK-293 cells expressing MC3-R, MC4-R or MC5-R, and in B-16 mouse melanoma cells (containing MC1-R). Antagonistic activity was determined by measuring the inhibition of α-MSH-induced cAMP levels following exposure to the compounds. Cells, suspended in Earle's Balanced Salt Solution containing 10 mM HEPES, pH 7.5, 5 mM MgCl2, 1 mM glutamine, 0.1% albumin and 0.6 mM 3-isobutyl-1-methyl-xanthine, a phosphodiesterase inhibitor, were plated in 96 well plates at a density of 0.5×10^5 cells per well. Cells were incubated with the test compounds in the presence or absence of α-MSH for 1 hour at 37° C. cAMP levels were measured by EIA (Amersham) in the cell lysates. Data analysis and EC50 values were determined using nonlinear regression analysis with Prism Graph-Pad software.

MC4-R (HEK-293 cells) = target: T3, MC4-R (HEK-293 cells) (Homo sapiens, UniProt P32245); assay: cAMP assay for agonist/antagonist status, MC4-R; format: cell-based
T3 construct: expressed in transfected cells; host or cells: HEK-293
T3 sequence (P32245 whole entry): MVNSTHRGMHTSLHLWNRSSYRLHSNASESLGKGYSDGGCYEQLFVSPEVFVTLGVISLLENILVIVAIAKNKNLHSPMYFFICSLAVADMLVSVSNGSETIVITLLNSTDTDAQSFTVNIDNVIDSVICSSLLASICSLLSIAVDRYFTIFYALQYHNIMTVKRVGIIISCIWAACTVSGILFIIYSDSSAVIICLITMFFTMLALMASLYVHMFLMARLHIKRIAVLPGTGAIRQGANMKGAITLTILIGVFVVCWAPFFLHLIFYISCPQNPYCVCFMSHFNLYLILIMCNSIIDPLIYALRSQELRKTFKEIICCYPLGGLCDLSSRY
Description: as §2

MC5-R (HEK-293 cells) = target: T4, MC5-R (HEK-293 cells) (Homo sapiens, UniProt P33032); assay: cAMP assay for agonist/antagonist status, MC5-R; format: cell-based
T4 construct: expressed in transfected cells; host or cells: HEK-293
T4 sequence (P33032 whole entry): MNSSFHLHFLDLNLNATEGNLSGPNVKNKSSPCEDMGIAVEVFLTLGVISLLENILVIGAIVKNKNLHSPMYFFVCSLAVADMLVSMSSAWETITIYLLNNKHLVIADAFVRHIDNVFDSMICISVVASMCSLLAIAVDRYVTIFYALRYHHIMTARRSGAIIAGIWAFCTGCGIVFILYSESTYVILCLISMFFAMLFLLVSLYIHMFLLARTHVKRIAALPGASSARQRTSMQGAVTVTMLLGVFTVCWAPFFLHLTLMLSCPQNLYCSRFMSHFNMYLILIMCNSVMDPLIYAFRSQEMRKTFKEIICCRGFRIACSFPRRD
Description: as §2

MC4-R = MC4-R (Homo sapiens, UniProt P32245); assay: Competitive inhibition binding assay, 125I-NDP-α-MSH, MC4-R; parameters: expressed in transfected cells; conditions: 1 μM compound; inhibition of 125I-NDP-α-MSH binding; mean of triplicates; results less than 0% reported as 0%
MC4-R, sequence (P32245 whole entry): as the sequence (P32245 whole entry) above
Procedure, shortened: as §1

MC5-R [4] = target: T5, MC5-R (Homo sapiens, UniProt P33032); assay: Competitive inhibition binding assay, 125I-NDP-α-MSH, MC5-R; parameters: expressed in transfected cells; conditions: 1 μM compound; inhibition of 125I-NDP-α-MSH binding; mean of triplicates; results less than 0% reported as 0%
T5 sequence (P33032 whole entry): as the sequence (P33032 whole entry) above
Procedure, shortened: as §1

MC3-R [5] = target: T1, MC3-R; assay: Ki determination by the method of Example 4, MC3-R; format: binding; parameters: expressed in transfected cells; host or cells: HEK-293
Description: as §2

MC5-R [6] = target: T5, MC5-R; assay: Ki determination by the method of Example 4, MC5-R; format: binding; parameters: expressed in transfected cells; host or cells: HEK-293; conditions: read-out: Ki (nM) MC5-R
Description: as §2

[7] = bound in μM, read-out: Ki MC3-R

T1 sequence (P41968 whole entry): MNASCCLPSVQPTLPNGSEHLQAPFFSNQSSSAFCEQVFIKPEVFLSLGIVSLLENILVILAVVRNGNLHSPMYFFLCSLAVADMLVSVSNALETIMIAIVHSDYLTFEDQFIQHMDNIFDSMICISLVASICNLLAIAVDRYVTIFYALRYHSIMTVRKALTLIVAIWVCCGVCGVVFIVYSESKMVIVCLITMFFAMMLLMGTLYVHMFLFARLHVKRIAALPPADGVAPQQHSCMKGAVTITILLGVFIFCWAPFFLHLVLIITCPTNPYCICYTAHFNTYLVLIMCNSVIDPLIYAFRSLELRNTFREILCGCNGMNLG

Row | SMILES | Inhibition at 1 μM MC3-R (MC3-R [1]) [%] | Inhibition at 1 μM MC1-R [2] [%] | agonist/antagonist status as to MC1-R [3] | agonist/antagonist status as to MC4-R (MC4-R (HEK-293 cells)) | agonist/antagonist status as to MC5-R (MC5-R (HEK-293 cells)) | Inhibition at 1 μM MC4-R (MC4-R) [%] | Inhibition at 1 μM MC5-R (MC5-R [4]) [%] | Ki (MC3-R [5]; [7]) [µM] | Ki (MC5-R [6]) [nM] | Ki (MC3-R [5]; read-out: Ki (nM) MC3-R) [µM]
1 | NCCCC[C@H]1C(=O)N(CCc2ccc3ccccc3c2)CCN1C(=O)[C@@H](Cc1ccc(Cl)cc1Cl)NCc1ccc2ccccc2c1 [Example 41] | 4 | 4 | antagonist | antagonist | agonist | 84 | 2 |  |  | 
2 | NC(=O)NCCC[C@H]1C(=O)N(CCc2ccc3ccccc3c2)CCN1C(=O)[C@@H](Cc1ccc(Cl)cc1Cl)NC(=O)[C@@H](N)COCc1ccccc1 [Example 44] | 43 | 8 | agonist | agonist | agonist | 94 | 66 |  |  | 
3 | N=C(N)NCCC[C@H]1C(=O)N(CCc2ccc3ccccc3c2)CCN1C(=O)[C@H](N)Cc1ccc(Cl)cc1Cl [Example 51] | 47 | 22 | antagonist | agonist | agonist | 95 | 35 |  |  | 
4 | NCCC[C@H]1C(=O)N(CCc2ccc3ccccc3c2)CCN1C(=O)[C@@H](Cc1ccc(Cl)cc1Cl)NC(=O)[C@@H](N)COCc1ccccc1 [Example 52] | 25 | 36 | agonist | agonist | agonist | 94 | 63 |  |  | 
5 | N=C(N)NCCC[C@H]1C(=O)N(CCc2ccc3ccccc3c2)CCN1C(=O)[C@@H](Cc1ccc(Cl)cc1Cl)NC(=O)[C@@H](N)COCc1ccccc1 [Example 53] | 93 | 81 | agonist | agonist | agonist | 99 | 96 |  |  | 
6 | NCCCCC1C(=O)N2C(COc3ccc4ccccc4c3)CCC2N1C(=O)C(Cc1ccc(Cl)cc1)NC(=O)C1Cc2ccccc2CN1 (centres unmarked) [Example 80] |  |  |  |  |  |  |  | > 1 |  | 

Next, values leading:

Row | Inhibition at 1 μM MC3-R (MC3-R [1]) [%] | Inhibition at 1 μM MC1-R [2] [%] | agonist/antagonist status as to MC1-R [3] | agonist/antagonist status as to MC4-R (MC4-R (HEK-293 cells)) | agonist/antagonist status as to MC5-R (MC5-R (HEK-293 cells)) | Inhibition at 1 μM MC4-R (MC4-R) [%] | Inhibition at 1 μM MC5-R (MC5-R [4]) [%] | Ki (MC3-R [5]; [7]) [µM] | Ki (MC5-R [6]) [nM] | Ki (MC3-R [5]; read-out: Ki (nM) MC3-R) [µM] | SMILES
7 |  |  |  |  |  |  |  |  | 134 | 0.209 | CCCCCCC(=O)NC(COCc1ccccc1)C(=O)NC(Cc1ccc(Cl)cc1)C(=O)N1C(CCCCN)C(=O)N2C(COc3ccc4ccccc4c3)CCC21 (centres unmarked) [Example 81]
8 |  |  |  |  |  |  |  | > 1 |  |  | N=C(N)NCCCC1C(=O)N2C(COc3ccc4ccccc4c3)CCC2N1C(=O)C(Cc1ccccc1Cl)NC(=O)C(N)COCc1ccccc1 (centres unmarked) [Example 99]
9 | 84 | 53 | agonist | antagonist | agonist | 100 | 100 |  |  |  | N=C(N)NCCC[C@H]1C(=O)N2C(CC[C@@H]2COc2ccc3ccccc3c2)N1C(=O)[C@@H](Cc1ccc(Cl)cc1Cl)NC(=O)[C@@H]1C[C@@H](OCc2ccccc2)CN1 (some centres unmarked) [Example 113]
10 | 77 | 53 | agonist | agonist | agonist | 100 | 94 |  |  |  | N=C(N)NCCC[C@H]1C(=O)N2C(CC[C@@H]2COc2ccc3ccccc3c2)N1C(=O)[C@@H](Cc1ccc(Cl)cc1Cl)NC(=O)[C@@H](N)COCc1ccccc1 (some centres unmarked) [Example 114]
